“Also recorded” adds a separate entry of the source.
What was measured:
in vitro = conditions: human, plasma
Description: The stock solution of test compound was prepared in DMSO and diluted at the final concentration of 200 μM.
• a. 2.5 μL of 200 μM or 1 mM test compound or control compound solution was spiked to 497.5 μL plasma to reach a final concentration of 1 μM or 5 μM. The final concentration of organic solvents was 0.5%. The assay was performed in duplicated. • b. The reaction samples were incubated at 37° C. at approximately 60 rpm in a water bath. • c. Aliquots of 50 μL were taken from the reaction samples at 0, 30, 60, 120, 180 and 240 minutes. The reaction was stopped by the addition of 7 volumes of cold acetonitrile containing internal standards (IS: 100 nM alprazolam, 200 nM imipramine, 200 nM labetalol and 2 μM ketoprofen). • d. All samples were vortexed for 2 minutes, followed by centrifugation at 3,220 g for 30 minutes to precipitate proteins. 100 μL of the supernatant was transferred to a new plate. The supernatant was diluted with ultrapure water according to the LC-MS signal response and peak shape.
Samples were Analyzed by LC-MS/MS. • LC system: Shimadzu • MS analysis: Triple Quad™ 6500+ from AB Inc (Canada) with an ESI interface • Column temperature: 40° C. • Column: Xselect® Hss T3 2.5μ (2.1×30 mm) coupled with preguard column • Mobile phase: 0.1% formic acid in water (A) and 0.1% formic acid in acetonitrile (B)
All calculations were carried out using Microsoft Excel. Remaining percentages of parent compounds at each time point were estimated by determining the peak area ratios from extracted ion chromatograms.

[1] = test system: low attentive and low motivated rats; conditions: doses below the threshold for wet dog shake response; cited from earlier work
5-HT2 receptor = conditions: rat brain, daily administration; cited from earlier work
5-HT2A = conditions: rats, 5-HT2A or 5-HT1A antagonists; cited from earlier work
5-HT1A receptors = conditions: cited from earlier work
[2] = molecular target: 5-HT2A and 5-HT2C receptors; conditions: compared with LSD; cited from earlier work
[3] = patients; psilocybin-assisted psychotherapy or supportive setting; cited from earlier work
[4] = test system: brain's default mode network; conditions: humans, intravenous; cited from earlier work

SMILES | remaining at 0.5 h (in vitro) [%] | remaining at 1 h (in vitro) [%] | remaining at 2 h (in vitro) [%] | remaining at 3 h (in vitro) [%] | remaining at 4 h (in vitro) [%] | task performance [1] | 5-HT2 receptor density (5-HT2 receptor) | drug discrimination (5-HT2A) | activation of 5-HT1A receptors (5-HT1A receptors) | K(i) [2] | relief of depression and anxiety [3] | oscillatory power [4]
CN(C)CCc1c[nH]c2cccc(OC(=O)CCCC(=O)Oc3cccc4[nH]cc(CCN(C)C)c34)c12 [Compound I-24, Bis(3-(2-(dimethylamino)ethyl)-1H-indol-4-yl) glutarate] | 0 | 0 | 0 | 0 | 0 |  |  |  |  |  |  | 
CN(C)CCc1c[nH]c2cccc(OP(=O)(O)O)c12 [Psilocybin] |  |  |  |  |  | improved performance on the 5-choice serial reaction time and progressive ratio tasks | reduce 5-HT2 receptor density in rat brain | 5-HT2A antagonists, but not 5-HT1A antagonists, prevented rats from recognizing psilocybin | activates 5-HT1A receptors | lower K(i) for both 5-HT2A and 5-HT2C receptors than LSD | unprecedented positive relief of anxiety and depression; also recorded: significant and sustained anti-depressant and anxiolytic effects | decreases in oscillatory power in areas of the brain's default mode network

Source: patent publication US20260327250A1, “3-ETHYLAMINO-INDOLE DIMERS AS SEROTONERGIC AGENTS USEFUL FOR THE TREATMENT OF DISORDERS RELATED THERETO” (MINDSET PHARMA INC., priority 2022, published 2026)
